This note sets out measurements from publication PMC3128102, “A Single Sex Pheromone Receptor Determines Chemical Response Specificity of Sexual Behavior in the Silkmoth Bombyx mori” (PLoS Genetics, 2011).

Assay [1] deals with T1, PxOR1 coexpressed with BmOR2 (Plutella xylostella, UniProt B5MEK0).
T1 construct: coexpressed in Xenopus oocytes; mixed-species heteromeric OR complex, PxOR1 of Plutella xylostella with BmOR2 of Bombyx mori; with Odorant receptor coreceptor (Bombyx mori)
T1 sequence (B5MEK0 1-422): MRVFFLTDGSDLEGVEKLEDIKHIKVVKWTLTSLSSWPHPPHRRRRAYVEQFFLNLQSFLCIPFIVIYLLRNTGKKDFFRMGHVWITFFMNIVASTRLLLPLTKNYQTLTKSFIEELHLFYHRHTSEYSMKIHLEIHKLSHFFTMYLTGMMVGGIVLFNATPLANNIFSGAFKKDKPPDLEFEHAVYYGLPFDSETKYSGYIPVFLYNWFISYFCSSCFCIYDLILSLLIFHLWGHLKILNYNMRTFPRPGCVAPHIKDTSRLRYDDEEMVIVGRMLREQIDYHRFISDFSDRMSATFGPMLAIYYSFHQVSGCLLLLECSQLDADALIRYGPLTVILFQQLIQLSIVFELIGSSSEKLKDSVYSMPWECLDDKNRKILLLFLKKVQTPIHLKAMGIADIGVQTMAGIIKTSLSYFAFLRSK
The assay can be described thus: electrophysiology, agonist-induced current in Xenopus oocytes. It is filed as cell-based. The following applies: PxOR1 with Bombyx mori co-receptor BmOR2, applied sequentially to same oocyte, n = 10, read-out: 50% effective concentration. The text has this: electrophysiology, agonist-induced current in Xenopus oocytes on PxOR1 coexpressed with BmOR2 | PxOR1 with PxOR83 and PxOR1 with BmOR2, respectively

Assay [2] addresses T2, PxOR1 coexpressed with PxOR83 (Plutella xylostella, UniProt B5MEK0).
T2 construct: coexpressed in Xenopus oocytes; heteromeric OR complex; with Odorant receptor coreceptor
T2 sequence (B5MEK0 1-422): T1 sequence (B5MEK0 1-422)
T2 sequence (D0EZE1 1-471 partner): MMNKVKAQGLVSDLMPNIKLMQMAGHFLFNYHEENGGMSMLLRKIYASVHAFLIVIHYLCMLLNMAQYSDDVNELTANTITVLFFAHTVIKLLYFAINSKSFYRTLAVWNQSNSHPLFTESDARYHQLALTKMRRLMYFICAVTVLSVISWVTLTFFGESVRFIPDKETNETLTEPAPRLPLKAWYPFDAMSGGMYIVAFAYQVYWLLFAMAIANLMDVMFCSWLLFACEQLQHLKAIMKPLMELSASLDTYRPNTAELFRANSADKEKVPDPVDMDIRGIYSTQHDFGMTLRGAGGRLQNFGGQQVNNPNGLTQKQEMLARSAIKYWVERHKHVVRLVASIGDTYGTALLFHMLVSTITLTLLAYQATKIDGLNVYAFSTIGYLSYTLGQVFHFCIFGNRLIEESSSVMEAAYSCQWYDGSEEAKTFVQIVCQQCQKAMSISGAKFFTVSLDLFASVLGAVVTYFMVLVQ
Described as above. Conditions: read-out: 50% effective concentration. It counts as cell-based.

As to `CCCC/C=C\CCCCCCCCCC=O` [Z11-16:Ald, (Z)-11-hexadecenal], the EC50 in assay [1] stood at 1200 nM; in assay [2], 420 nM.
